Experimental data as given in patent US20040224358A1, “Method for discovering one or more peptides adapted for specific binding to a microorganism of interest” (priority 2002, published 2004).

Experiments:
[1] = system: lipopolysaccharides from E.coli; assay: Dot blot binding of membrane-absorbed peptides to FITC-LPS from E.coli; conditions: 0-20 μg peptide on PVDF membrane, FIG. 1(a)
Procedure: (§1) Varying amounts of each peptide (ranging from 0-20 μg in 5 μg increments) were absorbed at a flow rate of approximately 0.15 ml/min. The membrane was blocked with 3% gelatin in TBS for 30 minutes at room temperature with gentle agitation and then was washed three times with TBS. Isolated, fluorescently-labeled lipopolysaccharides (FITC-LPS) from E.coli and Salmonella (Sigma Chemical Co.) were diluted in TBS to a final concentration of […] and were then bound to the membrane at room temperature with gentle agitation. The membrane was then washed three times with TBS and imaged on a Storm 860 (Molecular Dynamics, Sunnyvale, Calif.) in blue fluorescence mode.

[2] = system: lipopolysaccharides from Salmonella; assay: Dot blot binding of membrane-absorbed peptides to FITC-LPS from Salmonella; conditions: 0-20 μg peptide on PVDF membrane, FIG. 1(b)
Procedure: as §1

[3] = system: E.coli 0157: H7 cells; assay: Whole-cell binding of E.coli to immobilized Cys-Cecropin P1 (HRP antibody/TMB, absorbance 650 nm); set-up: species or system E coli serotype 0157: H7 (non-pathogenic); conditions: immobilized peptide, E.coli 0157: H7 whole cells, FIG. 2
Procedure: The binding of cecropin P1 to whole E.colicells was tested as follows: Preparation of whole bacterial cells—E coli serotype 0157: H7 (non-pathogenic) cells from a frozen stock were grown overnight in Luria Broth Base (Life Technologies, Inc., Paisely, Scotland). The bacterial cells were collected by centrifugation at 9000×g for 5 min. The cell pellet was washed 2 times with PBS pH 7.2 and collected each time by centrifugation. The washed cell pellet was resuspended in PBS pH 7.2 to a final volume equivalent to the original culture volume. Optical density of the cell suspension was detected on a Beckmann DU840 spectrophotometer at an absorbance of 540 nm. An absorbance of 4.5 is approximately 3.5×10^9 cfu/ml.
Peptide immobilization—Cys-Cecropin P1 (a modified cecropin p1 prepared by solid phase peptide synthesis wherein cysteine is added to the C-terminus of cecropin p1) was diluted into PBS pH 6.5, 1 mM EDTA, 0.0001 mM DTT (Sigma Chemical Co., St. Louis, Mo.) for immobilization onto sulfhydryl-bind strip wells (Corning Inc., Corning, N.Y.). […]
Detection and color development—E.coli 0157: H7 cells (prepared as above) were added to each well containing immobilized cys-cecropin p1 (described as above). […] Absorbance was then measured on a Thermomax microplate reader (Molecular Devices, Sunnyvale, Calif.) at 650 nm.

Row | Substance | binding to lipopolysaccharides from E. coli [1] | binding to lipopolysaccharides from Salmonella [2] | saturation of whole-cell binding occurs at a concentration of [3] [µg]
1 | Buforin I | did not bind | did not bind | 
2 | Cecropin P1 (SWLSKTAKKLENSAKKRISEGIAIAIQGGPR; Cecropin-P1; UniProt P14661 14-44, looked up) | did bind | did bind | 45 to 50
3 | Indolicidin | did bind | did bind | 
4 | PGQ | did bind | did bind | 
